Patent US20220119354A1, “DIAMINO-SUBSTITUTED PYRIDINES AND PYRIMIDINES AS HERBICIDES” (FMC Corporation, priority 2019, published 2022)

How the values were obtained:
Type in all cases: in vivo
[1] = tested on: barnyardgrass (Echinochloa crus-galli); assay: Test B flooded paddy test, barnyardgrass; conditions: Flood, 250 g ai/ha, applied to paddy water, 2-leaf stage, visual evaluation after 13 to 15 d
Procedure, shortened: (§1)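 Application was made into paddy water of pots flooded 3 cm deep at treatment, with seedlings at the 2-leaf stage. That flood level was kept throughout, and plants stayed under glass 13 to 15 d before visual assessment on a 0–100 control scale.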

kochia (Kochia scoparia) [2] = assay: Test A postemergence, kochia; conditions: 0 to 100 scale
Procedure, shortened: (§2)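 Pots of loam–sand mix; preemergence directed soil spray at sowing, postemergence spray at one- to two-leaf stage. Readout: visual injury vs untreated controls, ~10 d, 0–100 scale.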

[3] = tested on: ragweed (common ragweed, Ambrosia elatior); assay: Test A preemergence, ragweed; conditions: 0 to 100 scale; for Ragweed plant response rating: 125 g ai/ha, 0 is no effect, 100 is complete control; for Plant response rating, Ragweed: 500 g ai/ha
Procedure, shortened: as §2

corn (Zea mays) = assay: Test A postemergence, corn; conditions: 0 to 100 scale
Procedure, shortened: as §2

[4] = tested on: galium (catchweed bedstraw, Galium aparine); assay: Test A postemergence, galium; conditions: 0 to 100 scale
Procedure, shortened: as §2

[5] = tested on: foxtail, giant (Setaria faberii); assay: Test A postemergence, giant foxtail; conditions: 0 to 100 scale
Procedure, shortened: as §2

[6] = tested on: barnyardgrass (Echinochloa crus-galli); assay: Test A postemergence, barnyardgrass; conditions: 0 to 100 scale
Procedure, shortened: as §2

[7] = tested on: ryegrass, Italian (Lolium multiflorum); assay: Test A postemergence, Italian ryegrass; conditions: 0 to 100 scale
Procedure, shortened: as §2

[8] = tested on: pigweed (Amaranthus retroflexus); assay: Test A preemergence, pigweed; conditions: 0 to 100 scale; for Pigweed plant response rating: 125 g ai/ha, 0 is no effect, 100 is complete control; for Plant response rating, Pigweed: 500 g ai/ha
Procedure, shortened: as §2

[9] = tested on: sedge, umbrella (small-flower umbrella sedge, Cyperus difformis); assay: Test B flooded paddy test, umbrella sedge; conditions: Flood, 250 g ai/ha, applied to paddy water, 2-leaf stage, visual evaluation after 13 to 15 d
Procedure, shortened: as §1

[10] = tested on: blackgrass (Alopecurus myosuroides); assay: Test A postemergence, blackgrass; conditions: 0 to 100 scale
Procedure, shortened: as §2

[11] = tested on: ryegrass, Italian (Lolium multiflorum); assay: Test A preemergence, Italian ryegrass; conditions: 0 to 100 scale; for Ryegrass, Italian plant response rating: 125 g ai/ha, 0 is no effect, 100 is complete control; for Plant response rating, Ryegrass, Italian: 500 g ai/ha
Procedure, shortened: as §2

rice (Oryza sativa) = assay: Test B flooded paddy test, rice; conditions: Flood, 250 g ai/ha, applied to paddy water, 2-leaf stage, visual evaluation after 13 to 15 d
Procedure, shortened: as §1

[12] = tested on: wheat (Triticum aestivum); assay: Test A postemergence, wheat; conditions: 0 to 100 scale
Procedure, shortened: as §2

kochia (Kochia scoparia) [13] = assay: Test A preemergence, kochia; conditions: 0 to 100 scale; for Kochia plant response rating: 125 g ai/ha, 0 is no effect, 100 is complete control; for Plant response rating, Kochia: 500 g ai/ha
Procedure, shortened: as §2

[14] = tested on: foxtail, giant (Setaria faberii); assay: Test A preemergence, giant foxtail; conditions: 0 to 100 scale; for Plant response rating, Foxtail, Giant: 500 g ai/ha
Procedure, shortened: as §2

[15] = tested on: ragweed (common ragweed, Ambrosia elatior); assay: Test A postemergence, ragweed; conditions: 0 to 100 scale
Procedure, shortened: as §2

[16] = tested on: barnyardgrass (Echinochloa crus-galli); assay: Test A preemergence, barnyardgrass; conditions: 0 to 100 scale; for Barnyardgrass plant response rating: 125 g ai/ha, 0 is no effect, 100 is complete control; for Plant response rating, Barnyardgrass: 500 g ai/ha
Procedure, shortened: as §2

[17] = tested on: pigweed (Amaranthus retroflexus); assay: Test A postemergence, pigweed; conditions: 0 to 100 scale
Procedure, shortened: as §2

[18] = tested on: ducksalad (Heteranthera limosa); assay: Test B flooded paddy test, ducksalad; conditions: Flood, 250 g ai/ha, applied to paddy water, 2-leaf stage, visual evaluation after 13 to 15 d
Procedure, shortened: as §1

CC(COc1cccc(F)c1)Nc1ncc(C(F)(F)F)c(N)n1 (centres unmarked) [Compound 37] was tested, and the “Plant response rating, Barnyardgrass (0 to 100 scale, 0 is no effect, 100 is complete control)” value [1] was 0, the “Plant response rating, Kochia” value (kochia (Kochia scoparia) [2]; 125 g ai/ha) was 0 and the “Plant response rating, Kochia” value (kochia (Kochia scoparia) [2]; 500 g ai/ha) was 0. For the same compound, the “Ragweed plant response rating” value [3] was 0, the “Plant response rating, Ragweed” value [3] was 100 and the “Plant response rating, Corn” value (corn (Zea mays); 125 g ai/ha) was 0. The “Plant response rating, Corn” value (corn (Zea mays); 500 g ai/ha) was 0, the “Plant response rating, Galium” value ([4]; 125 g ai/ha) was 20 and the “Plant response rating, Galium” value ([4]; 500 g ai/ha) was 40. The “Plant response rating, Foxtail, Giant” value ([5]; 125 g ai/ha) was 0, the “Plant response rating, Foxtail, Giant” value ([5]; 500 g ai/ha) was 0 and the “Plant response rating, Barnyardgrass” value ([6]; 125 g ai/ha) was 0. The “Plant response rating, Barnyardgrass” value ([6]; 500 g ai/ha) was 0, the “Plant response rating, Ryegrass, Italian” value ([7]; 125 g ai/ha) was 0 and the “Plant response rating, Ryegrass, Italian” value ([7]; 500 g ai/ha) was 0. For the same compound, the “Pigweed plant response rating” value [8] was 50, the “Plant response rating, Pigweed” value [8] was 70 and the “Plant response rating, Sedge, Umbrella (0 to 100 scale, 0 is no effect, 100 is complete control)” value [9] was 0. The “Plant response rating, Blackgrass” value ([10]; 125 g ai/ha) was 0, the “Plant response rating, Blackgrass” value ([10]; 500 g ai/ha) was 0 and the “Ryegrass, Italian plant response rating” value [11] was 0. The “Plant response rating, Ryegrass, Italian” value [11] was 0, the “Plant response rating, Rice (0 to 100 scale, 0 is no effect, 100 is complete control)” value (rice (Oryza sativa)) was 0 and the “Plant response rating, Wheat” value ([12]; 125 g ai/ha) was 0. For the same compound, the “Plant response rating, Wheat” value ([12]; 500 g ai/ha) was 0, the “Kochia plant response rating” value (kochia (Kochia scoparia) [13]) was 0 and the “Plant response rating, Kochia” value (kochia (Kochia scoparia) [13]) was 0. The “Foxtail, Giant plant response rating” value ([14]; 125 g ai/ha, 0 is no effect, 100 is complete control) was 0, the “Plant response rating, Foxtail, Giant” value [14] was 0 and the “Plant response rating, Ragweed” value ([15]; 125 g ai/ha) was 0. For the same compound, the “Plant response rating, Ragweed” value ([15]; 500 g ai/ha) was 0, the “Barnyardgrass plant response rating” value [16] was 0 and the “Plant response rating, Barnyardgrass” value [16] was 0. For the same compound, the “Plant response rating, Pigweed” value ([17]; 125 g ai/ha) was 0, the “Plant response rating, Pigweed” value ([17]; 500 g ai/ha) was 40 and the “Plant response rating, Ducksalad (0 to 100 scale, 0 is no effect, 100 is complete control)” value [18] was 0.
Cc1cc(F)cc(OCC(C)Nc2ncc(C(F)(F)F)c(N)n2)c1 (centres unmarked) [Compound 39] was tested, and the “Plant response rating, Barnyardgrass (0 to 100 scale, 0 is no effect, 100 is complete control)” value [1] was 0, the “Plant response rating, Kochia” value (kochia (Kochia scoparia) [2]; 125 g ai/ha) was 40 and the “Plant response rating, Kochia” value (kochia (Kochia scoparia) [2]; 500 g ai/ha) was 70. For the same compound, the “Ragweed plant response rating” value [3] was 70, the “Plant response rating, Ragweed” value [3] was 100 and the “Plant response rating, Corn” value (corn (Zea mays); 125 g ai/ha) was 10. The “Plant response rating, Corn” value (corn (Zea mays); 500 g ai/ha) was 20, the “Plant response rating, Galium” value ([4]; 125 g ai/ha) was 70 and the “Plant response rating, Galium” value ([4]; 500 g ai/ha) was 70. For the same compound, the “Plant response rating, Foxtail, Giant” value ([5]; 125 g ai/ha) was 0, the “Plant response rating, Foxtail, Giant” value ([5]; 500 g ai/ha) was 10 and the “Plant response rating, Barnyardgrass” value ([6]; 125 g ai/ha) was 0. For the same compound, the “Plant response rating, Barnyardgrass” value ([6]; 500 g ai/ha) was 0, the “Plant response rating, Ryegrass, Italian” value ([7]; 125 g ai/ha) was 0 and the “Plant response rating, Ryegrass, Italian” value ([7]; 500 g ai/ha) was 50. For the same compound, the “Pigweed plant response rating” value [8] was 70, the “Plant response rating, Pigweed” value [8] was 80 and the “Plant response rating, Sedge, Umbrella (0 to 100 scale, 0 is no effect, 100 is complete control)” value [9] was 0. For the same compound, the “Plant response rating, Blackgrass” value ([10]; 125 g ai/ha) was 0, the “Plant response rating, Blackgrass” value ([10]; 500 g ai/ha) was 0 and the “Ryegrass, Italian plant response rating” value [11] was 0. The “Plant response rating, Ryegrass, Italian” value [11] was 10, the “Plant response rating, Rice (0 to 100 scale, 0 is no effect, 100 is complete control)” value (rice (Oryza sativa)) was 0 and the “Plant response rating, Wheat” value ([12]; 125 g ai/ha) was 0. The “Plant response rating, Wheat” value ([12]; 500 g ai/ha) was 0, the “Kochia plant response rating” value (kochia (Kochia scoparia) [13]) was 0 and the “Plant response rating, Kochia” value (kochia (Kochia scoparia) [13]) was 80. The “Plant response rating, Foxtail, Giant” value [14] was 90, the “Plant response rating, Ragweed” value ([15]; 125 g ai/ha) was 0 and the “Plant response rating, Ragweed” value ([15]; 500 g ai/ha) was 40. The “Barnyardgrass plant response rating” value [16] was 40, the “Plant response rating, Barnyardgrass” value [16] was 90 and the “Plant response rating, Pigweed” value ([17]; 125 g ai/ha) was 20. The “Plant response rating, Pigweed” value ([17]; 500 g ai/ha) was 60 and the “Plant response rating, Ducksalad (0 to 100 scale, 0 is no effect, 100 is complete control)” value [18] was 0.
